Experimental data as given in ChEMBL document CHEMBL1201862, “PubChem BioAssay data set” (2004).
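Grown in 96-well plates, cells were treated for 48 hours with each compound at five concentrations. Insufficient inhibition: endpoint recorded as highest concentration tested. GI50 is the concentration that inhibits growth by half.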 Active and inactive are the calls of the source. Rule as the data show it: active = GI50 up to about 1.1 µM and inactive = higher.

Columns and labels:
Experiment in all cases: NCI tumour cell line growth inhibition, 48 h
OVCAR-4 = system: OVCAR-4
MOLT-4 = system: MOLT-4
KM12 = system: KM12
M14 = system: M14
RXF 393 = system: RXF 393
ACHN = system: ACHN
SK-MEL-2 = system: SK-MEL-2
UO-31 = system: UO-31
HCC 2998 = system: HCC 2998
A498 = system: A498
SNB-78 = system: SNB-78
OVCAR-5 = system: OVCAR-5
SN12C = system: SN12C
OVCAR-8 = system: OVCAR-8
CCRF-CEM = system: CCRF-CEM
SR = system: SR
U-251 = system: U-251
MDA-MB-435 = system: MDA-MB-435
SK-OV-3 = system: SK-OV-3
Hs-578T = system: Hs-578T

SMILES	GI50 (OVCAR-4)	GI50 (MOLT-4)	GI50 (KM12)	GI50 (M14)	GI50 (RXF 393)	GI50 (ACHN)	GI50 (SK-MEL-2)	GI50 (UO-31)	GI50 (HCC 2998)	GI50 (A498)	GI50 (SNB-78)	GI50 (OVCAR-5)	GI50 (SN12C)	GI50 (OVCAR-8)	GI50 (CCRF-CEM)	GI50 (SR)	GI50 (U-251)	GI50 (MDA-MB-435)	GI50 (SK-OV-3)	GI50 (Hs-578T)
CN(C)c1ccc(/C=C/c2cc[n+](C)c3ccccc23)cc1	5.05 µM (inactive)	3.4 µM (inactive)	2.51 µM (inactive)	3.44 µM (inactive)	7.1 µM (inactive)	6.43 µM (inactive)	2.27 µM (inactive)	23.8 µM (inactive)	6.32 µM (inactive)	15.1 µM (inactive)	7.59 µM (inactive)	6.43 µM (inactive)	3.44 µM (inactive)	1.53 µM (inactive)	1.9 µM (inactive)	0.698 µM (active)	2.75 µM (inactive)	2.03 µM (inactive)	5.81 µM (inactive)	2.74 µM (inactive)
COC(=O)c1cc(C(=O)OC)c(CC(=O)C(=O)NC2C3CC4CC(C3)CC2C4)nc1CC(=O)C(=O)NC1C2CC3CC(C2)CC1C3 (stereo not drawn)	> 100 µM (inactive)	37.3 µM (inactive)	> 100 µM (inactive)	> 100 µM (inactive)	> 100 µM (inactive)	> 100 µM (inactive)	> 100 µM (inactive)	> 100 µM (inactive)	> 100 µM (inactive)	> 100 µM (inactive)	> 100 µM (inactive)	> 100 µM (inactive)	> 100 µM (inactive)	> 100 µM (inactive)	> 100 µM (inactive)	8.69 µM (inactive)	> 100 µM (inactive)	–	> 100 µM (inactive)	–
Cc1cc2c(C)n(Cc3ccc(Cl)cc3Cl)nc2c(C#N)c1C	9.89 µM (inactive)	> 100 µM (inactive)	> 100 µM (inactive)	49 µM (inactive)	15.3 µM (inactive)	49 µM (inactive)	> 61.4 µM (inactive)	52.8 µM (inactive)	> 100 µM (inactive)	65.8 µM (inactive)	24.4 µM (inactive)	> 42.1 µM (inactive)	53.3 µM (inactive)	14.8 µM (inactive)	> 100 µM (inactive)	> 100 µM (inactive)	22.1 µM (inactive)	–	19.1 µM (inactive)	–
N#Cc1cc([N+](=O)[O-])ccc1NC(=O)C(F)(F)F	> 100 µM (inactive)	> 100 µM (inactive)	> 100 µM (inactive)	> 100 µM (inactive)	> 56.6 µM (inactive)	> 100 µM (inactive)	> 100 µM (inactive)	> 100 µM (inactive)	> 100 µM (inactive)	> 100 µM (inactive)	> 100 µM (inactive)	> 100 µM (inactive)	> 100 µM (inactive)	> 84.3 µM (inactive)	> 84.7 µM (inactive)	> 100 µM (inactive)	> 100 µM (inactive)	–	> 100 µM (inactive)	–
COC(=O)C(=O)C(C(C)=O)C(=O)NCc1ccc(OC)c(OC)c1 (stereo not drawn)	> 100 µM (inactive)	> 100 µM (inactive)	> 100 µM (inactive)	> 100 µM (inactive)	78.5 µM (inactive)	> 100 µM (inactive)	> 100 µM (inactive)	> 100 µM (inactive)	> 100 µM (inactive)	> 100 µM (inactive)	> 100 µM (inactive)	> 100 µM (inactive)	> 100 µM (inactive)	> 100 µM (inactive)	> 100 µM (inactive)	> 100 µM (inactive)	> 100 µM (inactive)	–	> 100 µM (inactive)	–
CN/N=C(\C(=O)Nc1ccc(C(F)(F)F)cc1[N+](=O)[O-])C(c1cnc2ccc([N+](=O)[O-])cc2n1)[N+](=O)[O-] (stereo not drawn)	> 10 µM (inactive)	14.8 µM (inactive)	48.6 µM (inactive)	> 100 µM (inactive)	30.1 µM (inactive)	21.8 µM (inactive)	> 100 µM (inactive)	16 µM (inactive)	49.5 µM (inactive)	16.7 µM (inactive)	61.7 µM (inactive)	22.9 µM (inactive)	> 100 µM (inactive)	59 µM (inactive)	9.77 µM (inactive)	27.7 µM (inactive)	78.5 µM (inactive)	–	> 100 µM (inactive)	–
COc1ccc(C2Oc3c(c(O)cc4c3[C@H](c3ccc(O)cc3O)[C@H](O)C(c3ccc(O)c(O)c3)O4)C[C@@H]2O)cc1O (stereo partly drawn)	> 100 µM (inactive)	> 100 µM (inactive)	> 100 µM (inactive)	> 100 µM (inactive)	> 100 µM (inactive)	> 100 µM (inactive)	> 100 µM (inactive)	> 100 µM (inactive)	> 100 µM (inactive)	> 100 µM (inactive)	> 100 µM (inactive)	> 100 µM (inactive)	> 100 µM (inactive)	> 100 µM (inactive)	> 100 µM (inactive)	> 100 µM (inactive)	> 100 µM (inactive)	–	> 100 µM (inactive)	–
